Assay results taken from patent US20070166781A1, “Method for assessing the virulence of pathogens and uses thereof” (priority 2002, published 2007).
In brackets after ≈: the same amount, converted by molar mass. Where two headings read alike, the source gives them in different places.

How the values were obtained:
Type in all cases: cell-based
[1] = system: P. aeruginosa PT625 (nalB); assay: MIC in Mueller-Hinton broth by the microdilution method; details: Pseudomonas aeruginosa
Description: (§1) Bacteria were grown overnight at 37° C. on Luria-Bertani (LB) agar. Single colonies were inoculated into 5 ml PB (2% (wt/vol) peptone, 0.3% (wt/vol) MgCl2.6H2O, 1% (wt/vol) K2SO4) (Essar et al., 1990, J. Bacteriol., 172(2), 884-900) in a 50 ml flask and grown at 37° C. for 8 hr prior to use. […] Under these conditions, similar OD600s were obtained for each strain and the induction of quorum sensing was maximal. Minimal Inhibitory Concentrations (MICs) were determined in Mueller-Hinton broth by the microdilution method (Thornsberry et al., 1983 NCCLS, 3, 48-56).

[2] = system: P. aeruginosa PT648 (nfxB); assay: as above; details: Pseudomonas aeruginosa
Description: as §1

[3] = system: P. aeruginosa PT149 (nfxC); assay: as above; details: Pseudomonas aeruginosa
Description: as §1

[4] = system: P. aeruginosa PDO100; assay: as above; details: Pseudomonas aeruginosa
Description: as §1

[5] = system: P. aeruginosa PAO-BI (nfxC); assay: as above; details: Pseudomonas aeruginosa
Description: as §1

[6] = system: P. aeruginosa PAO1; assay: as above; details: Pseudomonas aeruginosa; strain PAO1
Description: as §1

[7] = system: P. aeruginosa PAO1; assay: Growth of D. discoideum DH1-10 on a lawn of P. aeruginosa PAO1 grown with azithromycin; details: lawn of PAO1, 2 μg/ml azithromycin
Description: Quantitative measurements of D. discoideum growth on a lawn of pure P. aeruginosa were obtained by first plating 200 μl of P. aeruginosa culture on SM-agar. Droplets of 5 μl containing serial dilutions of D. discoideum cells (50.000 cells, 10.000 cells, 2.000, etc.) were then spotted on the bacterial lawn. The plates were incubated for 5 days at 25° C. and the highest dilution at which D. discoideum growth was visible was recorded.
However, in these experiments, Dictyostelium was grown in, the presence of both Klebsiella and Pseudomonas bacteria. […] To obtain more quantitative results, higher numbers of Dictyostelium cells were used to determine how many amoebae would be necessary to create a plaque in a lawn of P. aeruginosa. […] Consequently growth of Dictyostelium on the lasR mutant was scored as 1. On a lawn of the rhlR mutant PT462, amoebal growth could be observed in the first five dilutions of Dictyostelium (FIG. 2C; scored 5). […]
A lawn of P. aeruginosa PAO1 is grown in the presence of 2 μg/ml of azithromycin overnight. The bacterial lawn is then seeded with different dilutions of D. discoideum DH1-10 three days latter and the appearance of D. discoideum DH1-10 colonies is monitored. Growth of colonies of D. discoideum DH1-10 are recorded and scored between 1 and 2 (same scale as FIG. 2) as compared to a score of 0 in the absence of antibiotic.

[8] = strain PT648 (nfxB), read-out: MIC
[9] = strain PT149 (nfxC), read-out: MIC
[10] = strain PAO-BI (nfxC), read-out: MIC

SMILES	MIC [1] [µg/mL]	MIC [2, 8] [µg/mL]	MIC [3, 9] [µg/mL]	MIC ([4]; strain PDO100, read-out: MIC) [µg/mL]	MIC [5, 10] [µg/mL]	MIC [6] [µg/mL]	MIC [2] [µg/mL]	MIC [3] [µg/mL]	MIC ([4]; PDO100) [µg/mL]	MIC [5] [µg/mL]	Growth of colonies of D. discoideum DH1-10 in the presence versus absence of azithromycin [7]
CO/N=C(\C(=O)N[C@@H]1C(=O)N2C(C(=O)[O-])=C(C[n+]3cccc4c3CCC4)CS[C@H]12)c1csc(N)n1 [Cefpirome]	4 (≈ 7.77 µM)	8 (≈ 15.5 µM)	0.5 (≈ 0.972 µM)	2 (≈ 3.89 µM)	0.5 (≈ 0.972 µM)	2 (≈ 3.89 µM)	–	–	–	–	–
C[C@H]1[C@H](NC(=O)/C(=N\OC(C)(C)C(=O)O)c2csc(N)n2)C(=O)N1S(=O)(=O)O [Aztreonam]	16 (≈ 36.7 µM)	2 (≈ 4.59 µM)	1 (≈ 2.3 µM)	2 (≈ 4.59 µM)	2 (≈ 4.59 µM)	4 (≈ 9.19 µM)	–	–	–	–	–
C[C@@H](O)[C@H]1C(=O)N2C(C(=O)O)=C(SCCN=CN)C[C@H]12 [Imipenem]	1 (≈ 3.34 µM)	1 (≈ 3.34 µM)	4 (≈ 13.4 µM)	1 (≈ 3.34 µM)	4 (≈ 13.4 µM)	1 (≈ 3.34 µM)	–	–	–	–	–
O=C(O)c1cn(C2CC2)c2cc(N3CCNCC3)c(F)cc2c1=O [Ciprofloxacin]	0.5 (≈ 1.51 µM)	1 (≈ 3.02 µM)	1 (≈ 3.02 µM)	0.125 (≈ 0.377 µM)	1 (≈ 3.02 µM)	0.125 (≈ 0.377 µM)	–	–	–	–	–
O=C(N[C@H](CO)[C@H](O)c1ccc([N+](=O)[O-])cc1)C(Cl)Cl [Chloramphenicol]	64 (≈ 198 µM)	–	–	–	–	32 (≈ 99 µM)	64 (≈ 198 µM)	1060 (≈ 3290 µM)	32 (≈ 99 µM)	1060 (≈ 3290 µM)	–
CC[C@H]1OC(=O)[C@H](C)[C@@H](O[C@H]2C[C@@](C)(OC)[C@@H](O)[C@H](C)O2)[C@H](C)[C@@H](O[C@@H]2O[C@H](C)C[C@H](N(C)C)[C@H]2O)[C@](C)(O)C[C@@H](C)CN(C)[C@H](C)[C@@H](O)[C@]1(C)O [azithromycin, Azithromycin]	–	–	–	–	–	–	–	–	–	–	significantly greater
